One block for each compound: values may come before it. Calls of active or inactive are those of the source.
What was measured:
Assay type in all cases: functional
Aurora kinase B = Aurora kinase B (Homo sapiens, UniProt Q96GD4)
[1] = target: Vascular endothelial growth factor receptor 2 (Homo sapiens, UniProt P35968)
Aurora kinase A = Aurora kinase A (Homo sapiens, UniProt O14965);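 note: value from the Navigating the Kinome kinase panel profiling, panel entry STK6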
[2] = target: Homeodomain-interacting protein kinase 2 (Homo sapiens, UniProt Q9H2X6);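 note: measured within a kinome-wide kinase profiling panel, HIPK2 being one panel member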
[3] = target: Mitogen-activated protein kinase kinase kinase kinase 4 (Homo sapiens, UniProt O95819)
[4] = target: Dual specificity protein kinase CLK4 (Homo sapiens, UniProt Q9HAZ1)
[5] = target: cAMP-dependent protein kinase catalytic subunit alpha (Homo sapiens, UniProt P17612)
[6] = target: T1, Glycogen synthase kinase-3 beta (Homo sapiens, UniProt P49841);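 note: value comes from a broad kinome profiling panel, with GSK3B as the panel member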
[7] = target: Serine/threonine-protein kinase pim-1 (Homo sapiens, UniProt P11309)
[8] = target: Cell division cycle 7-related protein kinase (Homo sapiens, UniProt O00311);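 note: value obtained from a kinome-wide kinase panel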
[9] = target: Interleukin-1 receptor-associated kinase 4 (Homo sapiens, UniProt Q9NWZ3)
[10] = target: T2, Neuropeptides B/W receptor type 1 (Homo sapiens, UniProt P48145); assay: GPR7 antagonist potency, late-stage follow-up, cell-based, fluorescence, dose response, set 6 (AID 588583)
T2 sequence (P48145 whole entry): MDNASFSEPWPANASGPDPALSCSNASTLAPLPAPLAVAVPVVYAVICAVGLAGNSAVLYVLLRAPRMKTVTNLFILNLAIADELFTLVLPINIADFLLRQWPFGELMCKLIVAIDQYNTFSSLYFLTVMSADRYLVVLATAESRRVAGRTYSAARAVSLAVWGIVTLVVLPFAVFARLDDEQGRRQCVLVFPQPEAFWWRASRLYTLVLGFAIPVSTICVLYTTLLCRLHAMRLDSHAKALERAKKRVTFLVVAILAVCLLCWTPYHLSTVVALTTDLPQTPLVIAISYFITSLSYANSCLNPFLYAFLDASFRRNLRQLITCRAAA

[11] = target: Melanin-concentrating hormone receptor 1 (Homo sapiens, UniProt Q99705); assay: Late-stage fluorescence-based counterscreen for antagonists of the G-protein coupled receptor 7 (GPR7): cell-based dose response assay to identify antagonists of the melanin-concentrating hormone receptor 1 (MCHR1) Set 6.
[12] = target: Cyclin-dependent kinase 5 (Homo sapiens, UniProt Q00535);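 note: CDK5 measured as one member of a kinase profiling panel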
[13] = target: Cyclin-dependent kinase 1 (Homo sapiens, UniProt P06493);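 note: Kinome-wide panel profiling, with the target listed as panel member CDC2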
[14] = target: Serine/threonine-protein kinase MRCK alpha (Homo sapiens, UniProt Q5VT25)
SRSF protein kinase 1 = SRSF protein kinase 1 (Homo sapiens, UniProt Q96SB4);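 note: measured as one member of a kinome-wide kinase profiling panel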
[15] = target: T1, Glycogen synthase kinase-3 beta; assay: GSK3beta kinase inhibitors, dose response, biochemical, microfluidics, dry powder samples, set 2 (AID 623989)
[16] = target: DNA dC->dU-editing enzyme APOBEC-3A (Homo sapiens, UniProt P31941); assay: APOBEC3A DNA deaminase inhibitors, dose response, biochemical (AID 504722)
[17] = target: DNA dC->dU-editing enzyme APOBEC-3G (Homo sapiens, UniProt Q9HC16); assay: Dose Response confirmation of small molecule APOBEC3G DNA Deaminase Inhibitors via a fluorescence-based single-stranded DNA deaminase assay. [Related pubchem assays (depositor defined):AID493012, AID493028]
[18] = target: Cyclin-dependent kinase 5/CDK5 activator 1 (Homo sapiens, UniProt Q00535); assay: CDK5-p25 kinase inhibition, dose response, selectivity assay for GSK3beta inhibitor project, biochemical, microfluidic mobility shift, dry powder, set 2 (AID 623979)
[19] = target: Glycogen synthase kinase-3 alpha (Homo sapiens, UniProt P49840); assay: human GSK3 alpha kinase inhibition, dose response, selectivity assay for GSK3beta inhibitor project, biochemical, microfluidics, dry powder samples, set 2 (AID 623978)
Sequence of Glycogen synthase kinase-3 alpha (P49840 whole entry): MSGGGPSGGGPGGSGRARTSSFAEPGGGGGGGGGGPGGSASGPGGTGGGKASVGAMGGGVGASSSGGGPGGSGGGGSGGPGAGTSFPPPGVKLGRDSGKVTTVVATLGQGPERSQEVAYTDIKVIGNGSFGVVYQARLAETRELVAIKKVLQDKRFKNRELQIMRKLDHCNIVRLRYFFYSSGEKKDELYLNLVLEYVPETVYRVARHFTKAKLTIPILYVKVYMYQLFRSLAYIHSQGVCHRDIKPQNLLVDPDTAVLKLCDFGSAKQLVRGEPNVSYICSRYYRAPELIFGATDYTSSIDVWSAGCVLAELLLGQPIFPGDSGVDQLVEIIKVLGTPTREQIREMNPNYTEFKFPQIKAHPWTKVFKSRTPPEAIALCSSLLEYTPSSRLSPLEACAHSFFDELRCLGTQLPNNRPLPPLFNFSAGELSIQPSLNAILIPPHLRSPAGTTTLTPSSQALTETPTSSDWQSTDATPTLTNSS

T1 sequence (P49841 whole entry): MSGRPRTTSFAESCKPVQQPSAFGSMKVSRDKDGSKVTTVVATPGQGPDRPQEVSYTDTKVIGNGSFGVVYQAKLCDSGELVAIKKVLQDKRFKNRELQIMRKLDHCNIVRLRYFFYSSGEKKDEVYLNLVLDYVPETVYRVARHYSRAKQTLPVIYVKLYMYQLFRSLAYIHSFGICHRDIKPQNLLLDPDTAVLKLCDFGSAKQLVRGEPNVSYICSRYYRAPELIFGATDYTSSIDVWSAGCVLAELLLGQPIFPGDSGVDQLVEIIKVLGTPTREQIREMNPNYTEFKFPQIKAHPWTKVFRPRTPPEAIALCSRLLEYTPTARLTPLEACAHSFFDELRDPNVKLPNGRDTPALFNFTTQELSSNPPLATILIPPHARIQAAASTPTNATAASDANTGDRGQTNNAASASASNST
Sequence of Interleukin-1 receptor-associated kinase 4 (Q9NWZ3 whole entry): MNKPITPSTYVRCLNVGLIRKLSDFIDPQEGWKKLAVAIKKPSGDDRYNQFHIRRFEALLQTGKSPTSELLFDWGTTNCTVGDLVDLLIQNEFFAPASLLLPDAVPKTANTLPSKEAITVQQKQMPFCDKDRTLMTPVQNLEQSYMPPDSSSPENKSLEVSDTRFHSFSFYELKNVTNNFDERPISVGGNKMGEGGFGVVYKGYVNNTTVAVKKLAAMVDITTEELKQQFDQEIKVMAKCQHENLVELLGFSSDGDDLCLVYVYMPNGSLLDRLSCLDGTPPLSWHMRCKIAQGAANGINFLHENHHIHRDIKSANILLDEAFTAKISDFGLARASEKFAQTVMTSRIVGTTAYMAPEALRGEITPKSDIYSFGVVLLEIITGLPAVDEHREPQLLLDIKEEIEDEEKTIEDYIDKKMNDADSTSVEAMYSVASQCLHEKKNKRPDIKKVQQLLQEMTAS
Sequence of Cyclin-dependent kinase 1 (P06493 whole entry): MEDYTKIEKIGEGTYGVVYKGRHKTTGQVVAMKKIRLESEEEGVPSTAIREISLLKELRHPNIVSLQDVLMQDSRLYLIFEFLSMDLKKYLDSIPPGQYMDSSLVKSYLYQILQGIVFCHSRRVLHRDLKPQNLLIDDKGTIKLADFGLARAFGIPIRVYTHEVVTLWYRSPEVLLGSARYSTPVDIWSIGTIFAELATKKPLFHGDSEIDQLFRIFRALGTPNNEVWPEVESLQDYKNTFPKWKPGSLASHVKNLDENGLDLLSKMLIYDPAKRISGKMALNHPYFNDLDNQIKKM
Sequence of SRSF protein kinase 1 (Q96SB4 whole entry): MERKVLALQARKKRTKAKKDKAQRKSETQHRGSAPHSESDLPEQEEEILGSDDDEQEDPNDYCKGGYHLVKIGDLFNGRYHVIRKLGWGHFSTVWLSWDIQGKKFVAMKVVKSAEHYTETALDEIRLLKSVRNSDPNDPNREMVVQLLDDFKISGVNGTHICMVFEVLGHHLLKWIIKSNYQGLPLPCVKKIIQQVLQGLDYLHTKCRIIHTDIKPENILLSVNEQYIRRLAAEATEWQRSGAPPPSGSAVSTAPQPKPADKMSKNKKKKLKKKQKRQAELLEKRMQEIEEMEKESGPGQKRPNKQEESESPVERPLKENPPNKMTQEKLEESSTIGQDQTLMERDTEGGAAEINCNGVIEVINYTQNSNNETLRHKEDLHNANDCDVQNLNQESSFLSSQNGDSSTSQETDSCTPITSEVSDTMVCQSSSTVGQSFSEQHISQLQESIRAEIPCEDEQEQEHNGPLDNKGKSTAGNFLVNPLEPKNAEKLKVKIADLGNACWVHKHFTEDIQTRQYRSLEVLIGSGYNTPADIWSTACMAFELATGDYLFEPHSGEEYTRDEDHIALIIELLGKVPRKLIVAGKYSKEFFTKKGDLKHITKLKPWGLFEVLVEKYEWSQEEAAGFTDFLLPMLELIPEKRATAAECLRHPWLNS
Sequence of Serine/threonine-protein kinase pim-1 (P11309 whole entry): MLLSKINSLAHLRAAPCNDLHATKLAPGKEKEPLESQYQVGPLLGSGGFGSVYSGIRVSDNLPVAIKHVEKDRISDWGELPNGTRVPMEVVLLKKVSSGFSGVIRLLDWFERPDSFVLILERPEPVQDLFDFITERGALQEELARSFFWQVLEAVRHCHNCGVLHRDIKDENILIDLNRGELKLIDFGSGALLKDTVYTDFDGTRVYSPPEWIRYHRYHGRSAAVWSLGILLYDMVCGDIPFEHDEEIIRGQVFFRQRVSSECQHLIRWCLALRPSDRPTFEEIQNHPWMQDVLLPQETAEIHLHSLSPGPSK
Sequence of Cell division cycle 7-related protein kinase (O00311 whole entry): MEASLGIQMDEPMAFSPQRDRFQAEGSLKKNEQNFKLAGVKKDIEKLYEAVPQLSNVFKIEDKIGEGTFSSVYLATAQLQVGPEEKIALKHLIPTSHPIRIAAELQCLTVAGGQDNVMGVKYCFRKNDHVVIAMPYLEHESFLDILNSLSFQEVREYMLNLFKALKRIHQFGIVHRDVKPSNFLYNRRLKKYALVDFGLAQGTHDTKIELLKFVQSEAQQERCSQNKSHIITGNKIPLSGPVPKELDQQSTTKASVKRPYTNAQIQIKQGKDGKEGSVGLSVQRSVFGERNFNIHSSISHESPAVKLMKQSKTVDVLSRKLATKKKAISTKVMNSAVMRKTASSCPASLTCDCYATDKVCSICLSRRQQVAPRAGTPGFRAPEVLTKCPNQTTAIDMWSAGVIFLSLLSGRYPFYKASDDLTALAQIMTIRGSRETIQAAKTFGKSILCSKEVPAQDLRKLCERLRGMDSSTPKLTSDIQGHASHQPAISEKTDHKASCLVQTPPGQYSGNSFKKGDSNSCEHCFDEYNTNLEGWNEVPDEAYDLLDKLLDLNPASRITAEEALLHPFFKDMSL
Sequence of Cyclin-dependent kinase 5 (Q00535 whole entry): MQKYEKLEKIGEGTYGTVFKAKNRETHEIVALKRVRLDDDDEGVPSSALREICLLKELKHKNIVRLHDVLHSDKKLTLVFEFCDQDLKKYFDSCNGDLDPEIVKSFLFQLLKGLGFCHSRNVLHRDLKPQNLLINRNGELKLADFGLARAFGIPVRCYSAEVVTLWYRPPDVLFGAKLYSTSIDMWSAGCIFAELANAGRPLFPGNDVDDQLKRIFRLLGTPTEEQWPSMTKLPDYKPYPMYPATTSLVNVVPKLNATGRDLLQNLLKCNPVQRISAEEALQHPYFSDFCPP
Sequence of Cyclin-dependent kinase 5/CDK5 activator 1 (Q00535 whole entry): as above
Sequence of Cyclin-dependent kinase 5/CDK5 activator 1 (Q15078 whole entry, further chain): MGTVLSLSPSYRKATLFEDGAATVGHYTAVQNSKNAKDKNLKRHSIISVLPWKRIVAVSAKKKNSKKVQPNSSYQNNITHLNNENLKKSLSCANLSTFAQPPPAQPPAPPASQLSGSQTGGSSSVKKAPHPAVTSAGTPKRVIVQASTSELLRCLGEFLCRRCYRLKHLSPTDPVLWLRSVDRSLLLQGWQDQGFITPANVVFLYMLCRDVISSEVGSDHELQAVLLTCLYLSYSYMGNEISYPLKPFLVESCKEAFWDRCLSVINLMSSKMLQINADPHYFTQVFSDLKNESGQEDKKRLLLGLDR
Sequence of DNA dC->dU-editing enzyme APOBEC-3A (P31941 whole entry): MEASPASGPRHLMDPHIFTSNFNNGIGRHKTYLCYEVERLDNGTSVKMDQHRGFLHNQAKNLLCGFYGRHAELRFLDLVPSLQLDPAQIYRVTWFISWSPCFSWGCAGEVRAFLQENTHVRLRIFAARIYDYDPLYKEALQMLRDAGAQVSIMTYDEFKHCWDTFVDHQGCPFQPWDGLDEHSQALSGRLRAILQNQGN
Sequence of DNA dC->dU-editing enzyme APOBEC-3G (Q9HC16 whole entry): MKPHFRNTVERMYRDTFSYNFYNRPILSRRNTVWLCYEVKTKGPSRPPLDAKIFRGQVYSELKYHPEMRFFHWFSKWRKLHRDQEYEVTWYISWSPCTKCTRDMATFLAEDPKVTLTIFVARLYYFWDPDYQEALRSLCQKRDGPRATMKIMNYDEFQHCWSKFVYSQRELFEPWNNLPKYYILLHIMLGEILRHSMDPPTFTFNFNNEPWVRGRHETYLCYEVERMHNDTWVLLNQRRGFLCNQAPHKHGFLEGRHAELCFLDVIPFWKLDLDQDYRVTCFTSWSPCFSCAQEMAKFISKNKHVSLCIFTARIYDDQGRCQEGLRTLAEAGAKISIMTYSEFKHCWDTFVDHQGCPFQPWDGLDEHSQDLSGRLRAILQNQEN

Ki (Aurora kinase B): 200 nM (active) | Ki [1]: 126 nM (active) | Ki (Aurora kinase A): 100 nM (active)
Structure (SMILES): CC1(C)CC(C=Cc2ccc(Cl)cc2)=Cc2c1sc1ncnc(N)c21

Ki [2]: 2000 nM (active) | Ki [3]: 79.4 nM (active) | Ki [4]: 10 nM (active) | Ki [5]: 794 nM (active) | Ki [6]: 2510 nM (active) | Ki [7]: 794 nM (active) | Ki [8]: 31.6 nM (active) | Ki [9]: > 10000 nM (inactive)
Structure (SMILES): CNCCOc1cncc(-c2ccc3[nH]nc(C)c3c2)c1

IC50 [10]: 255 nM (active) | IC50 [11]: 255 nM (active)
Structure (SMILES): N#CC(c1cc(F)ccc1F)c1c(Cl)cnn(Cc2cccc3ccccc23)c1=O (stereo not drawn)

Ki [12]: 5010 nM (active) | Ki [13]: 3980 nM (active) | Ki [14]: 6310 nM (active) | Ki (SRSF protein kinase 1): 5010 nM (active) | Ki [9]: 2510 nM (active)
Structure (SMILES): CN(c1ccccc1-c1ccc2c(c1)Nc1ccccc1NC2=O)S(C)(=O)=O

Structure (SMILES): Cc1ccc(-c2nnc(S)n2/N=C/c2ccncc2)cc1
AC50 [15]: 1480 nM (active) | IC50 [16]: > 100000 nM (inactive) | IC50 [17]: 2480 nM (active) | AC50 [18]: 19300 nM (active) | AC50 [19]: 7710 nM (active)

From ChEMBL document CHEMBL1201862, “PubChem BioAssay data set” (2004)
